Measured values as given in patent US11160790B2, “Method of inhibiting Cryptococcus growth using eltrombopag” (priority 2019, dated 2021).
Converted amounts (≈) assume the structure as drawn.

Experiments:
C. neoformans H99 [1] = experiment: Melanization assay (L-DOPA); assay type: cell-based, Cryptococcus neoformans; settings: 0.03 mg/L (¼ MIC) or 0.06 mg/L (½ MIC); 1 mM L-DOPA, 30° C.
Protocol: (§1) Cryptococcus and Candida species were cultured in yeast extract-peptone-dextrose (YPD) medium (containing 1% yeast extract, 2% peptone, 2% glucose, and optionally 2% agar for preparation of an agar plate). Aspergillus, Fusarium, and Trichophyton species were cultured on potato dextrose agar (PDA) plate (containing 2% potato infusion, […], and 1.5% agar). A microdilution assay was performed to determine minimum inhibitory concentration (MIC), minimum fungicidal concentration (MFC), and fractional inhibitory concentration (FIC) index (FICI) using RPMI 1640 medium buffered with MOPS. Minimal medium (containing 15 mM glucose, 10 mM magnesium sulfate, 29.4 mM potassium dihydrogen phosphate, 13 mM glycine, and 3 μM thiamine hydrochloride; pH 5.5) was used for capsule size assay and melanization assay.
Melanin protects Cryptococcus from toxic free radicals produced by the host defense system, and thus melanin production is important for the pathogenicity of Cryptococcus. To study whether eltrombopag has an effect on melanin production in Cryptococcus, 5×10^4 C. neoformans H99 cells were cultured in minimal medium (abbreviated as MM) with or without 1 mM L-DOPA in the presence or absence of eltrombopag. The flasks containing the cultures were wrapped in foil to prevent L-DOPA auto-polymerization. […]

C. neoformans H99 [2] = experiment: XTT-reduction assay of biofilm metabolic activity; assay type: cell-based, Cryptococcus neoformans
Protocol: Cryptococcus biofilms, which are composed of Cryptococcus cells and extracellular matrix, enhance the tolerance of Cryptococcus to antifungal agents (such as amphotericin B) and host defense mechanisms. To assess whether eltrombopag impacts biofilm formation in Cryptococcus, an XTT-reduction assay was used to measure the metabolic activity of C. neoformans cells treated with eltrombopag at 37° C. Briefly, C. neoformans […] cells were cultured in YPD medium at 30° C. overnight. The cells were washed twice with phosphate buffered saline (PBS) and resuspended in RPMI 1640 medium with or without eltrombopag at the indicated concentrations. The cell suspension (0.0005 OD600/mL) was added to a 96-well polystyrene plate and incubated at 37° C. for 24 or 48 hours. […] After incubation, the cells were washed three times with PBS and subjected to XTT reduction assay to quantify formazan formation by measuring the light absorbance at 492 nm. The experiments were performed in triplicate, and the results were presented as mean±standard deviation. Statistical significance for the data sets was determined using a two-tailed t test.

C. deuterogattii 8265 = experiment: Disk diffusion susceptibility assay; assay type: cell-based, Cryptococcus deuterogattii; settings: 10 μg per disk; 25° C., 30° C. or 37° C., 48 hours
Protocol: (§2) A disk diffusion susceptibility assay was performed to further investigate the fungistatic activity of eltrombopag at different temperatures. Briefly, C. neoformans […] or C. deuterogattii 8265 was cultured overnight at 30° C., and 100 μL of the culture (at an OD600 of about 0.1) was spread on RPMI 1640 agar plates. Paper disks (with a diameter of 6 mm) were then placed on these agar plates, and either 10 μg eltrombopag (dissolved in 5 μL DMSO) or 5 μL DMSO (control) was added to each disk. The agar plates were incubated at 25° C., 30° C., or 37° C. for 48 hours and photographed.

most Candida species = experiment: Microdilution assay, summary for Candida species; assay type: cell-based
Protocol: as §1, with “Minimal medium (containing 15 mM glucose, 10 mM magnesium sulfate, 29.4 mM potassium dihydrogen phosphate, 13 mM glycine, and 3 μM thiamine hydrochloride; pH 5.5) was used for capsule size assay and melanization assay.” left out
(§3) To investigate the inhibitory effects of eltrombopag on the growth of fungi, microdilution assays (based on the CLSI standards M27-A3 and M38-A2) were performed with multiple pathogenic yeasts and filamentous fungi including Cryptococcus, Candida, Aspergillus, Fusarium, and Trichophyton (TABLE 1). […] Thereafter, 3 μL of the fungal culture from each well of the 96-well plates was spotted onto eltrombopag-free YPD (for yeasts) or PDA (for filamentous fungi) agar plates, which were then incubated at 35° C. for 48 hours to examine colony formation Minimum fungicidal concentration (MFC) was determined to be the lowest drug concentration at which no colonies formed. […]

[3] = tested on: multiple C. neoformans/C. gattii; experiment: Microdilution assay, summary for Cryptococcus species; assay type: cell-based
Protocol: as §1, with “Minimal medium (containing 15 mM glucose, 10 mM magnesium sulfate, 29.4 mM potassium dihydrogen phosphate, 13 mM glycine, and 3 μM thiamine hydrochloride; pH 5.5) was used for capsule size assay and melanization assay.” left out
as §3

C. neoformans H99 [4] = experiment: Disk diffusion susceptibility assay; assay type: cell-based, Cryptococcus neoformans; settings: 10 μg per disk; 25° C., 30° C. or 37° C., 48 hours
Protocol: as §2

[5] = tested on: Cryptococcus deuterogattii R272; experiment: Microdilution assay (CLSI M27-A3/M38-A2), MIC and MFC; assay type: cell-based; settings: 35° C.
Protocol: as §1
(§4) To investigate the inhibitory effects of eltrombopag on the growth of fungi, microdilution assays (based on the CLSI standards M27-A3 and M38-A2) were performed with multiple pathogenic yeasts and filamentous fungi including Cryptococcus, Candida, Aspergillus, Fusarium, and Trichophyton (TABLE 1). Briefly, yeast or filamentous fungi strains at a final concentration of about 10^3 cfu/mL were inoculated in RPMI 1640 medium containing two-fold serially diluted eltrombopag (started at 64 mg/L). In addition, fungal cultures without eltrombopag were used as positive controls, while media without fungal cells and eltrombopag were used as negative controls. The 96-well plates loaded with the aforementioned cultures were incubated at 35° C. for 48 hours, and the growth of cells in each well was examined to determine the minimum inhibitory concentration (MIC) of eltrombopag, which was the lowest drug concentration at which there was no visible cell growth. Thereafter, 3 μL of the fungal culture from each well of the 96-well plates was spotted onto eltrombopag-free YPD (for yeasts) or PDA (for filamentous fungi) agar plates, which were then incubated at 35° C. for 48 hours to examine colony formation Minimum fungicidal concentration (MFC) was determined to be the lowest drug concentration at which no colonies formed. The assays were performed in triplicate.

Candida krusei ATCC6258 = experiment: as above; assay type: cell-based; settings: Pichia kudriavzevii, 35° C.
Protocol: as §1, §4

[6] = tested on: Candida tropicalis MYA3404; experiment: as above; assay type: cell-based; settings: 35° C.
Protocol: as §1, §4

[7] = tested on: Candida parapsilosis ATCC22019; experiment: as above; assay type: cell-based; settings: Lodderomyces parapsilosis, 35° C.
Protocol: as §1, §4

[8] = tested on: Cryptococcus deuterogattii R265; experiment: as above; assay type: cell-based; settings: 35° C.
Protocol: as §1, §4

[9] = tested on: Cryptococcus neoformans H99; experiment: as above; assay type: cell-based; settings: 35° C.
Protocol: as §1, §4

[10] = tested on: Fusarium solani Fungus III-6; experiment: as above; assay type: cell-based
Protocol: as §1, §4

[11] = tested on: Trichophyton rubrum MYA4438; experiment: as above; assay type: cell-based
Protocol: as §1, §4

[12] = tested on: Cryptococcus neoformans T1; experiment: as above; assay type: cell-based
Protocol: as §1, §4

Q: For `CC1=NN(c2ccc(C)c(C)c2)C(=O)/C1=N\Nc1cccc(-c2cccc(C(=O)O)c2)c1O` [eltrombopag], which melanin production (C. neoformans H99 [1]) is on record?
A: melanin production in C. neoformans reduced

Q: What about the “reduction of metabolic activity compared to the control group” value (C. neoformans H99 [2]; 0.125 mg/L, 37° C., 24 hours) of the same compound?
A: more than 70%

Q: And the “biofilm formation (metabolic activity, OD492)” value (C. neoformans H99 [2]; two-fold serially diluted from 4 to 0.015 mg/L, 48 hours)?
A: inhibited the formation of C. neoformans biofilms in a dose-dependent manner

Q: What about the inhibition zones (C. deuterogattii 8265) of the same compound?
A: significantly larger inhibition zones were observed at 37 °C

Q: What about the MIC (most Candida species) of the same compound?
A: ≥ 64 mg/1

Q: What about the MIC ([3]; 35° C.) of the same compound?
A: ~0.125 µg/mL (≈ 0.283 µM)

Q: And the MFCs ([3]; Cryptococcus species)?
A: higher than 64 mg/L

Q: And the inhibition zones (C. neoformans H99 [4])?
A: significantly larger inhibition zones were observed at 37 °C

Q: What about the MIC ([5]; 48 hours) of the same compound?
A: 0.125 µg/mL (≈ 0.283 µM)

Q: And the MFC ([5]; 48 hours on drug-free agar)?
A: > 64 µg/mL

Q: And the MIC (Candida krusei ATCC6258; 48 hours)?
A: 64 µg/mL (≈ 145 µM)

Q: What about the MFC (Candida krusei ATCC6258; 48 hours on drug-free agar) of the same compound?
A: > 64 µg/mL

Q: What about the MIC ([6]; 48 hours) of the same compound?
A: 64 µg/mL (≈ 145 µM)

Q: And the MFC ([6]; 48 hours on drug-free agar)?
A: > 64 µg/mL

Q: And the MIC ([7]; 48 hours)?
A: 64 µg/mL (≈ 145 µM)

Q: And the MFC ([7]; 48 hours on drug-free agar)?
A: > 64 µg/mL

Q: What about the MIC ([8]; 48 hours) of the same compound?
A: 0.125 µg/mL (≈ 0.283 µM)

Q: And the MFC ([8]; 48 hours on drug-free agar)?
A: > 64 µg/mL

Q: What about the MIC ([9]; 48 hours) of the same compound?
A: 0.125 µg/mL (≈ 0.283 µM)

Q: And the MFC ([9]; 48 hours on drug-free agar)?
A: > 64 µg/mL

Q: What about the antifungal activity [10] of the same compound?
A: no antifungal activity

Q: What about the MIC ([10]; Fusarium solani, 35° C., 48 hours) of the same compound?
A: > 64 µg/mL

Q: And the MFC ([10]; Fusarium solani, 35° C., 48 hours on drug-free agar)?
A: > 64 µg/mL

Q: What about the MFC ([11]; MYA4438, 35° C., 48 hours on drug-free agar) of the same compound?
A: > 64 µg/mL

Q: What about the MIC ([11]; MYA4438, 48 h, 35° C., 48 hours) of the same compound?
A: ~0.5 µg/mL (≈ 1.13 µM)

Q: What about the MFC ([12]; T1, 35° C., 48 hours on drug-free agar) of the same compound?
A: > 64 µg/mL

Q: And the MIC ([12]; T1, 48 h, 35° C., 48 hours, azole-resistant strain)?
A: 0.125 µg/mL (≈ 0.283 µM)
